Active and inactive are the calls of the source.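 Rule for the calls: active = AC50 no more than tenfold above the top dose tested, or full inhibition at every dose with a flat fit (cut at about 19 µM in these data); inconclusive = flat curve fit with inhibition between 30% and 70%, or poor fit; inactive = AC50 more than tenfold above the top dose tested.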
Test system: HMLE_sh_eGFP viability, CellTiter-Glo luminescence, 72 h
Assay: cytotoxicity in HMLE control line with eGFP shRNA, dose response, counter-screen for HMLE_sh_ECad selective toxicity project, cell-based, HMLE_sh_eGFP, luminescence (AID 463074);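 note: counterscreen control line to flag general toxicity for the HMLE_sh_ECad screen; potency for loss of viability as luminescence drops below DMSO wells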

Question: Which AC50 does the source give for `CCOC(=O)c1c(NC(=O)C(c2ccccc2)c2ccccc2)sc2c1C1CCN2CC1` here?
Answer: Its AC50 is 2.84 µM.

Question: With `C=C(C)COc1ccc(-c2n[nH]c(C)c2-c2ccc(OC)cc2)c(O)c1` as the compound, how does the AC50 read?
Answer: Its AC50 is 4.47 µM.

Question: Which AC50 does the source give for `CCCCNc1c(-c2ccc(-c3cccc(Cl)c3)cc2)nc2ccccn12` here?
Answer: The AC50 was 3.87 µM.

Question: With `O=C(CSc1ncnc2nc[nH]c12)c1ccc(Cl)cc1` as the compound, how does the AC50 read?
Answer: Its AC50 is 6.23 µM.

Question: `O=C(/C=C/c1ccco1)NCC1OCCc2ccccc21` (centres undefined) was tested. Which AC50 did it give?
Answer: The AC50 was > 19.5 µM (inactive).

Question: Which AC50 does the source give for `Cc1nc2ccccc2n1-c1nc(-c2ccco2)cc(C(F)(F)F)n1` here?
Answer: The AC50 was 0.817 µM.

Question: With `Cn1nnnc1Sc1ncnc2scc(-c3ccc(Cl)cc3)c12` as the compound, how does the AC50 read?
Answer: Its AC50 is 3.3 µM.

Question: How did the AC50 turn out when `O=C(NCc1ccco1)c1nc2c(nnn2Cc2ccccc2Cl)c(=O)[nH]1` was run?
Answer: The AC50 was 1.92 µM.

Question: `CC(=O)NC(c1cc(Cl)c2cccnc2c1O)C1CC1` (centres undefined) was tested. Which AC50 did it give?
Answer: The AC50 was 9.04 µM.

Question: With `CC1(C)C(=O)N(c2ccccc2)C1c1ccccc1O` (centres undefined) as the compound, how does the AC50 read?
Answer: The AC50 was 3.25 µM.

Question: With `NC(=O)CC(NC(=O)Cc1ccc(Br)cc1)c1ccc(NC2CC3CCC2C3)c([N+](=O)[O-])c1` (centres undefined) as the compound, how does the AC50 read?
Answer: Its AC50 is 6.74 µM.

Question: Which AC50 does the source give for `C[C@@H](CSc1ccc(Br)cc1)CN1CC[C@H](C(C)(C)C)CCC1=O` here?
Answer: Its AC50 is 3.35 µM.

Question: How did the AC50 turn out when `Cc1nn(Cc2ccc(C(=O)Nc3nccs3)cc2)c(C)c1Cl` was run?
Answer: Its AC50 is 0.661 µM.

Question: For `COc1cc(NC(=O)Nc2cccc(Cl)c2)c(OC)cc1NC(=O)CN1CCCCC1`, which AC50 is on record?
Answer: The AC50 was 4.3 µM.

Question: For `O=C(c1ccc(Cl)cc1)c1c[nH]c(C(=O)NNc2ccccc2)c1`, which AC50 is on record?
Answer: Its AC50 is 1.85 µM.

Question: For `Cc1ccc(-c2nc(CS(=O)CC(=O)NCc3ccc4c(c3)OCO4)c(C)o2)cc1` (centres undefined), which AC50 is on record?
Answer: Its AC50 is > 19.5 µM (inactive).

Question: `COc1ccc(N=N/C(=C\O)C(=O)c2cccs2)cc1` was tested. Which AC50 did it give?
Answer: Its AC50 is 5.35 µM.

Question: How did the AC50 turn out when `C=C1[C@@H](O)[C@@H]2O[C@]3(CC[C@H](/C=C/[C@@H](C)[C@@H]4CC(C)=CC5(O[C@H](C[C@@](C)(O)C(=O)OC)CC[C@H]5O)O4)O3)CC[C@H]2O[C@@H]1[C@@H](O)C[C@H](C)[C@H]1OC2(CCCCO2)CC[C@H]1C` (some centres undefined) was run?
Answer: The AC50 was < 0.16 µM.

Question: `CCOc1cc(CNCCO)cc(Br)c1OCc1ccc(Cl)cc1Cl` was tested. Which AC50 did it give?
Answer: The AC50 was 6.68 µM.

Question: Which AC50 does the source give for `COC(=O)c1ccc(COc2ccccc2/C=C(\C#N)C(=O)Nc2c(C)cc(C)cc2C)cc1` here?
Answer: Its AC50 is 2.08 µM.

Question: How did the AC50 turn out when `CCC1CCCCN1S(=O)(=O)c1ccc(S(=O)(=O)N(Cc2ccccn2)CC2CCCO2)cc1` (centres undefined) was run?
Answer: Its AC50 is 2.49 µM.

Question: With `O=c1c2ccccc2nc(COc2ccccc2)n1/N=C/c1cc([N+](=O)[O-])ccc1O` as the compound, how does the AC50 read?
Answer: The AC50 was > 19.5 µM (inactive).

Question: With `C[C@@H]1CCC(=O)N(CC[C@H](Sc2ccc(Br)cc2)c2ccccc2)CC1` as the compound, how does the AC50 read?
Answer: The AC50 was 5.66 µM.

Question: `Cc1ccccc1OCC(O)Cn1c2ccccc2c2ccccc21` (centres undefined) was tested. Which AC50 did it give?
Answer: The AC50 was 6.78 µM.

Question: `Oc1ccc(/C=N/Nc2ncc(Br)cn2)c(O)c1` was tested. Which AC50 did it give?
Answer: Its AC50 is 5.8 µM.

Question: For `CC1(C)CN(c2ccccc2)N(C(=O)c2ccc(F)cc2)C1=O`, which AC50 is on record?
Answer: Its AC50 is 5.6 µM.

Question: With `COCCNC(=O)NC1(C(F)(F)F)Oc2ccc(Cl)cc2O1` (centres undefined) as the compound, how does the AC50 read?
Answer: Its AC50 is 17.6 µM.

Question: Which AC50 does the source give for `CC1S/C(=N/N=C/c2cccc([N+](=O)[O-])c2)NC1=O` (centres undefined) here?
Answer: Its AC50 is 3.48 µM.

Question: `CCC(C)c1ccccc1NC(=O)COC(=O)c1ccc2[nH]c3c(c2c1)CCCC3` (centres undefined) was tested. Which AC50 did it give?
Answer: Its AC50 is 3.4 µM.

Question: For `O=C(COc1cccc(C(F)(F)F)c1)N1CCN(c2ccc(O)cc2)CC1`, which AC50 is on record?
Answer: The AC50 was 4.98 µM.

Question: `Cc1ccc(-c2csc(NCCn3c(-c4ccncc4)nc4cc(C(F)(F)F)ccc43)n2)cc1` was tested. Which AC50 did it give?
Answer: Its AC50 is 10.7 µM.

Question: For `CC(c1ccccc1)N1C(=O)/C(=C/c2ccncc2)SC1=S` (centres undefined), which AC50 is on record?
Answer: The AC50 was 17.2 µM.

Question: `CCC1C=CC=CC[C@H](C)[C@@H](O)[C@](C)(O)C(=O)[C@@H](C)[C@H](O)[C@@H](C)C(=O)[C@H](C)[C@@H](O)[C@H](C)C=CC(=O)OC2[C@@H](C)C(CC1)OC1(CC[C@@H](C)C(C[C@H](C)O)O1)[C@@H]2C` (some centres undefined) was tested. Which AC50 did it give?
Answer: Its AC50 is 3.2 µM.

Question: Which AC50 does the source give for `Cc1ccc(NC(=O)c2nc(S(=O)(=O)Cc3ccccc3)ncc2Cl)cc1` here?
Answer: The AC50 was 6.39 µM.

Question: Which AC50 does the source give for `CCn1c(C)c(C)c2cc(C(=O)Nc3cccc(Cl)c3)ccc21` here?
Answer: The AC50 was 4.05 µM.

Question: Which AC50 does the source give for `O=C(NC(CSCc1ccccc1)C(=O)N/N=C/c1ccc(O)cc1O)c1ccc([N+](=O)[O-])cc1` (centres undefined) here?
Answer: Its AC50 is 2.14 µM.

Question: `Oc1ccc(/C=C/c2nc(-c3ccccc3O)n(-c3ccccc3)n2)cc1` was tested. Which AC50 did it give?
Answer: Its AC50 is 6.7 µM.

Question: For `O=C(COCc1cc(-c2ccc3c(c2)OCO3)on1)N1CCN(c2cccc(C(F)(F)F)c2)CC1`, which AC50 is on record?
Answer: The AC50 was 2.69 µM.

Question: Which AC50 does the source give for `Oc1nc(Nc2cccc(Cl)c2)sc1/C=C1\C=Nc2ccccc21` here?
Answer: The AC50 was 3.78 µM.

Question: How did the AC50 turn out when `COc1cc(CNC(C)(C)CO)cc(Br)c1OCc1ccc(Cl)cc1Cl` was run?
Answer: Its AC50 is 6.07 µM.

Question: For `Oc1cccc(-c2nc3c4c(ncn3n2)-c2ccccc2CC42CCCC2)c1`, which AC50 is on record?
Answer: Its AC50 is 1.5 µM.

Question: How did the AC50 turn out when `CCCCCCOc1ccc(/C(C)=N/NC2=NCCN2)cc1[N+](=O)[O-]` was run?
Answer: The AC50 was 3.69 µM.

Question: How did the AC50 turn out when `CN(/N=C/c1cc(Br)cc(Br)c1O)c1cccc(C(F)(F)F)n1` was run?
Answer: The AC50 was 12.7 µM.

Question: Which AC50 does the source give for `O=C(NC(=S)Nc1ccc(N2CCCCC2)c(Cl)c1)c1cccs1` here?
Answer: The AC50 was 8.62 µM.

Question: With `CC(=O)Nc1sc(C)c(C)c1C(=O)OCC(=O)N(CC(C)C)c1c(N)n(Cc2ccccc2)c(=O)[nH]c1=O` as the compound, how does the AC50 read?
Answer: Its AC50 is 2.85 µM.

Question: With `O=C(/C=C/c1c(F)cccc1Cl)c1ccc(O)cc1` as the compound, how does the AC50 read?
Answer: The AC50 was 7.97 µM.

Question: For `CC1CCN(S(=O)(=O)c2ccc3c(c2)C(=NO)c2cc(S(=O)(=O)N4CCC(C)CC4)ccc2-3)CC1`, which AC50 is on record?
Answer: Its AC50 is 1.01 µM.

Question: With `CCOc1ccc(/C=C/C(O)=C2/C(=O)N(C)C3(C)CC2c2ccccc2O3)cc1OC` (centres undefined) as the compound, how does the AC50 read?
Answer: Its AC50 is 5.95 µM.

Question: How did the AC50 turn out when `CCCCNc1c(-c2ccc(OC)c(SC3CCCCC3)c2)nc2cc(C)ccn12` was run?
Answer: Its AC50 is 5.29 µM.

Question: With `C/C(CC(=O)Nc1ccc(Cl)c(C(F)(F)F)c1)=N\NC(=O)c1cc2ccccc2cc1O` as the compound, how does the AC50 read?
Answer: Its AC50 is 13.3 µM.

Question: With `Cc1ccc(NC(=S)NC(NC(=O)Cc2cccc3ccccc23)C(Cl)(Cl)Cl)cc1` (centres undefined) as the compound, how does the AC50 read?
Answer: The AC50 was 3.41 µM.

Question: `Cc1cc(C)c(C)c(S(=O)(=O)N2CCN(c3ccc(O)cc3)CC2)c1C` was tested. Which AC50 did it give?
Answer: The AC50 was 10.7 µM.

Question: Which AC50 does the source give for `COc1ccc(Cc2nnc(N/N=C/c3ccccc3O)[nH]c2=O)cc1OC` here?
Answer: Its AC50 is 3.4 µM.

Question: For `CN[C@H]1CCc2cc(OC)c(OC)c(OC)c2-c2ccc(N(C)CC(OC)OC)c(=O)cc21`, which AC50 is on record?
Answer: The AC50 was 2.15 µM.

Question: `COc1ccc(C)cc1NS(=O)(=O)c1ccc(NC(=O)CN(c2cc([N+](=O)[O-])ccc2C)S(C)(=O)=O)cc1` was tested. Which AC50 did it give?
Answer: The AC50 was 3.8 µM.

Question: With `Cc1ccc(N=Nc2ccc(O)cc2)c(Br)c1` as the compound, how does the AC50 read?
Answer: The AC50 was 8.42 µM.

Question: Which AC50 does the source give for `O=C(CSc1ncnc2nc[nH]c12)Nc1nnc(SCc2ccc(Cl)c(Cl)c2)s1` here?
Answer: Its AC50 is 7.45 µM.

Question: `CN1C2CCC1/C(=C\c1ccccc1)C(=O)/C2=C\c1ccccc1` was tested. Which AC50 did it give?
Answer: Its AC50 is 4.24 µM.

Question: For `CCOC(=O)c1c(C)oc2c(F)c(F)c(F)c(F)c2c1=O`, which AC50 is on record?
Answer: The AC50 was 2.02 µM.

Question: With `Cc1cc(SCC(=O)N/N=C/c2ccc(O)cc2O)c(C)cc1Br` as the compound, how does the AC50 read?
Answer: The AC50 was 4.42 µM.

Question: For `CC(C)c1ccc(NC(=O)c2snc3ccc(Cl)cc23)cc1`, which AC50 is on record?
Answer: The AC50 was 3.62 µM.

Question: Which AC50 does the source give for `CNC[C@H](CC1CCCCC1)NC[C@H](CO)NCCc1cccc(C(F)(F)F)c1` here?
Answer: The AC50 was 6.71 µM.

Question: Which AC50 does the source give for `O=C(CC1NCCc2ccccc21)Nc1ccc(Oc2ccccc2)cc1` (centres undefined) here?
Answer: The AC50 was 7.46 µM.

Question: Which AC50 does the source give for `Cc1cc(C)nc(SCc2ccc(C(=O)NNC(=O)Nc3cccc(Cl)c3)cc2)n1` here?
Answer: Its AC50 is 3.92 µM.

Question: Which AC50 does the source give for `CCOC(=O)C1=C(N)Oc2cc(O)ccc2C1c1cccc(Cl)c1` (centres undefined) here?
Answer: Its AC50 is 4.06 µM.

Question: Which AC50 does the source give for `CN(C)c1ccc(-n2cccc2/C=C/[N+](=O)[O-])cc1` here?
Answer: The AC50 was 3.63 µM.

Question: `O=c1cc(N2CCCCC2)c(-c2ccccc2)nn1Cc1cccc(F)c1` was tested. Which AC50 did it give?
Answer: Its AC50 is 5.13 µM.

Question: With `Cn1nc(-c2ccc(Cl)cc2)c2cc(C(=O)NCCCN3CCOCC3)sc21` as the compound, how does the AC50 read?
Answer: The AC50 was 5.94 µM.

Question: For `Cc1ccc(C(=O)Cn2nnc3c(sc4nc5c(c(-c6ccccc6)c43)CCC5)c2=O)cc1`, which AC50 is on record?
Answer: The AC50 was 0.687 µM.

Question: For `CCC(=O)Nc1nc(C)c(-c2csc(Nc3cccc(O)c3)n2)s1`, which AC50 is on record?
Answer: The AC50 was 0.384 µM.

Question: For `O=C(N/N=C/c1cc([N+](=O)[O-])ccc1O)c1c[nH]c2ccccc12`, which AC50 is on record?
Answer: The AC50 was 16.5 µM.

Question: How did the AC50 turn out when `O=c1[nH]c(CN2CCN(c3ccccn3)CC2)nc2c(Br)cc(Br)cc12` was run?
Answer: Its AC50 is 10.3 µM.

Question: With `CCCCNc1c(-c2ccc(OC)c(Sc3ccc(OC)cc3)c2)nc2ccccn12` as the compound, how does the AC50 read?
Answer: Its AC50 is 4.55 µM.

Question: `Nc1ccc2c(c1)Oc1ccccc1C=C2` was tested. Which AC50 did it give?
Answer: Its AC50 is > 19.5 µM (inactive).

— PubChem BioAssay AID463074 (Broad Institute, 2010)
